Measurements taken from ChEMBL document CHEMBL3603734, “Design and biological evaluation of novel quinolone-based metronidazole derivatives as potent Cu(2+) mediated DNA-targeting antibacterial agents” (Bioorg Med Chem Lett, 2015).
Converted amounts (≈) assume the structure as drawn.

Experiments:
Staphylococcus aureus [1] = experiment: Antibacterial activity against Staphylococcus aureus ATCC 25923 after 24 hrs by microbroth dilution method; type: functional; details: ATCC 25923, 24 h
Aspergillus flavus = experiment: Antifungal activity against Aspergillus flavus ATCC 204304 after 24 hrs by microbroth dilution method; type: functional; details: ATCC 204304, 24 h
[2] = Ionization constant, pKa of the compound by UV spectroscopic analysis; type: physicochemical
Saccharomyces cerevisiae = experiment: Antifungal activity against Saccharomyces cerevisiae ATCC 9763 after 24 hrs by microbroth dilution method; type: functional; details: ATCC 9763, 24 h
Bacillus = experiment: Antibacterial activity against Bacillus proteus ATCC 13315 after 24 hrs by microbroth dilution method; type: functional; details: ATCC 13315, 24 h
Salmonella enterica = experiment: Antibacterial activity against Salmonella enterica ATCC 14028 after 24 hrs by microbroth dilution method; type: functional; details: ATCC 14028, 24 h
Bacillus spizizenii = experiment: Antibacterial activity against Bacillus subtilis ATCC 6633 after 24 hrs by microbroth dilution method; type: functional; details: ATCC 6633, 24 h
Candida albicans = experiment: Antifungal activity against Candida albicans ATCC 10231 after 24 hrs by microbroth dilution method; type: functional; details: ATCC 10231, 24 h
Pseudomonas aeruginosa = experiment: Antibacterial activity against Pseudomonas aeruginosa ATCC 27853 after 24 hrs by microbroth dilution method; type: functional; details: ATCC 27853, 24 h
Escherichia coli = experiment: Antibacterial activity against Escherichia coli JM109 after 24 hrs by microbroth dilution method; type: functional; details: JM109, 24 h
Pichia norvegensis = experiment: Antifungal activity against Candida mycoderma ATCC 9888 after 24 hrs by microbroth dilution method; type: functional; details: ATCC 9888, 24 h
Staphylococcus aureus [3] = experiment: Antibacterial activity against methicillin-resistant Staphylococcus aureus N315 after 24 hrs by microbroth dilution method; type: functional; details: N315, 24 h
Micrococcus luteus = experiment: Antibacterial activity against Micrococcus luteus ATCC 4698 after 24 hrs by microbroth dilution method; type: functional; details: NCTC 2665, 24 h
Cyberlindnera jadinii = experiment: Antifungal activity against Candida utilis ATCC 9950 after 24 hrs by microbroth dilution method; type: functional; details: Williopsis jadinii, ATCC 9950, 24 h

Work on `Cc1nc(N2CCCC2)c([N+](=O)[O-])n1CC(O)CN1CCN(c2cc3c(cc2F)c(=O)c(C(=O)O)cn3C2CC2)CC1` (centres undefined) yielded an MIC (Staphylococcus aureus [1]) of 64 µg/mL (≈ 110 µM), an MIC (Aspergillus flavus) of 32 µg/mL (≈ 54.8 µM) and a pKa [2] of 6.72. For the same compound, the MIC (Saccharomyces cerevisiae) was 32 µg/mL (≈ 54.8 µM), the MIC (Bacillus) was 32 µg/mL (≈ 54.8 µM) and the MIC (Salmonella enterica) was 32 µg/mL (≈ 54.8 µM). For the same compound, the MIC (Bacillus spizizenii) was 16 µg/mL (≈ 27.4 µM), the MIC (Candida albicans) was 64 µg/mL (≈ 110 µM) and the MIC (Pseudomonas aeruginosa) was 2 µg/mL (≈ 3.43 µM). The MIC (Escherichia coli) was 64 µg/mL (≈ 110 µM), the MIC (Pichia norvegensis) was 32 µg/mL (≈ 54.8 µM) and the MIC (Staphylococcus aureus [3]) was 16 µg/mL (≈ 27.4 µM). The MIC (Micrococcus luteus) was 128 µg/mL (≈ 219 µM) and the MIC (Cyberlindnera jadinii) was 16 µg/mL (≈ 27.4 µM).

Compound `Cc1nc(N2CCOCC2)c([N+](=O)[O-])n1CC(O)CNC1CCN(c2c(F)cc3c(=O)c(C(=O)O)cn(C4CC4)c3c2Cl)C1` (centres undefined) has an MIC (Staphylococcus aureus [1]) of 0.5 µg/mL (≈ 0.789 µM), an MIC (Aspergillus flavus) of 1 µg/mL (≈ 1.58 µM) and a pKa [2] of 6.57. It also gave an MIC (Saccharomyces cerevisiae) of 1 µg/mL (≈ 1.58 µM), an MIC (Bacillus) of 0.25 µg/mL (≈ 0.394 µM) and an MIC (Salmonella enterica) of 2 µg/mL (≈ 3.15 µM). The MIC (Bacillus spizizenii) was 4 µg/mL (≈ 6.31 µM), the MIC (Candida albicans) was 2 µg/mL (≈ 3.15 µM) and the MIC (Pseudomonas aeruginosa) was 0.25 µg/mL (≈ 0.394 µM). For the same compound, the MIC (Escherichia coli) was 0.5 µg/mL (≈ 0.789 µM), the MIC (Pichia norvegensis) was 16 µg/mL (≈ 25.2 µM) and the MIC (Staphylococcus aureus [3]) was 0.25 µg/mL (≈ 0.394 µM). For the same compound, the MIC (Micrococcus luteus) was 2 µg/mL (≈ 3.15 µM) and the MIC (Cyberlindnera jadinii) was 0.5 µg/mL (≈ 0.789 µM).

Work on `Cc1nc(N2CCOCC2)c([N+](=O)[O-])n1CC(O)CN1CCN(c2cc3c(cc2F)c(=O)c(C(=O)O)cn3C2CC2)CC1` (centres undefined) yielded an MIC (Staphylococcus aureus [1]) of 16 µg/mL (≈ 26.7 µM), an MIC (Aspergillus flavus) of 8 µg/mL (≈ 13.3 µM) and a pKa [2] of 6.77. For the same compound, the MIC (Saccharomyces cerevisiae) was 16 µg/mL (≈ 26.7 µM), the MIC (Bacillus) was 4 µg/mL (≈ 6.67 µM) and the MIC (Salmonella enterica) was 8 µg/mL (≈ 13.3 µM). It also gave an MIC (Bacillus spizizenii) of 8 µg/mL (≈ 13.3 µM), an MIC (Candida albicans) of 32 µg/mL (≈ 53.4 µM) and an MIC (Pseudomonas aeruginosa) of 0.5 µg/mL (≈ 0.834 µM). For the same compound, the MIC (Escherichia coli) was 16 µg/mL (≈ 26.7 µM), the MIC (Pichia norvegensis) was 128 µg/mL (≈ 213 µM) and the MIC (Staphylococcus aureus [3]) was 4 µg/mL (≈ 6.67 µM). It also gave an MIC (Micrococcus luteus) of 16 µg/mL (≈ 26.7 µM) and an MIC (Cyberlindnera jadinii) of 4 µg/mL (≈ 6.67 µM).

Work on `OC(Cn1cncn1)(Cn1cncn1)c1ccc(F)cc1F` [FLUCONAZOLE] yielded an MIC (Aspergillus flavus) of 256 µg/mL (≈ 836 µM), an MIC (Saccharomyces cerevisiae) of 16 µg/mL (≈ 52.2 µM) and an MIC (Candida albicans) of 1 µg/mL (≈ 3.27 µM). It also gave an MIC (Pichia norvegensis) of 4 µg/mL (≈ 13.1 µM) and an MIC (Cyberlindnera jadinii) of 8 µg/mL (≈ 26.1 µM).

`CCn1cc(C(=O)O)c(=O)c2cc(F)c(N3CCN(CC(O)Cn4c(C)nc(N5CCCCC5)c4[N+](=O)[O-])CC3)cc21` (centres undefined) gave an MIC (Staphylococcus aureus [1]) of 64 µg/mL (≈ 109 µM), an MIC (Aspergillus flavus) of 32 µg/mL (≈ 54.6 µM) and a pKa [2] of 6.75. It also gave an MIC (Saccharomyces cerevisiae) of 32 µg/mL (≈ 54.6 µM), an MIC (Bacillus) of 128 µg/mL (≈ 219 µM) and an MIC (Salmonella enterica) of 128 µg/mL (≈ 219 µM). For the same compound, the MIC (Bacillus spizizenii) was 128 µg/mL (≈ 219 µM), the MIC (Candida albicans) was 32 µg/mL (≈ 54.6 µM) and the MIC (Pseudomonas aeruginosa) was 4 µg/mL (≈ 6.83 µM). The MIC (Escherichia coli) was 256 µg/mL (≈ 437 µM), the MIC (Pichia norvegensis) was 128 µg/mL (≈ 219 µM) and the MIC (Staphylococcus aureus [3]) was 64 µg/mL (≈ 109 µM). For the same compound, the MIC (Micrococcus luteus) was 128 µg/mL (≈ 219 µM) and the MIC (Cyberlindnera jadinii) was 32 µg/mL (≈ 54.6 µM).

With `O=C(O)c1cn(C2CC2)c2cc(N3CCN(CC4CO4)CC3)c(F)cc2c1=O` (centres undefined) the MIC (Staphylococcus aureus [1]) was 4 µg/mL (≈ 10.3 µM), the MIC (Aspergillus flavus) was 1 µg/mL (≈ 2.58 µM) and the MIC (Saccharomyces cerevisiae) was 1 µg/mL (≈ 2.58 µM). For the same compound, the MIC (Bacillus) was 4 µg/mL (≈ 10.3 µM), the MIC (Salmonella enterica) was 2 µg/mL (≈ 5.16 µM) and the MIC (Bacillus spizizenii) was 8 µg/mL (≈ 20.6 µM). The MIC (Candida albicans) was 2 µg/mL (≈ 5.16 µM), the MIC (Pseudomonas aeruginosa) was 2 µg/mL (≈ 5.16 µM) and the MIC (Escherichia coli) was 1 µg/mL (≈ 2.58 µM). The MIC (Pichia norvegensis) was 1 µg/mL (≈ 2.58 µM), the MIC (Staphylococcus aureus [3]) was 1 µg/mL (≈ 2.58 µM) and the MIC (Micrococcus luteus) was 2 µg/mL (≈ 5.16 µM). It also gave an MIC (Cyberlindnera jadinii) of 2 µg/mL (≈ 5.16 µM).

`NC1CCN(c2c(F)cc3c(=O)c(C(=O)O)cn(C4CC4)c3c2Cl)C1` (centres undefined) [CLINAFLOXACIN] showed an MIC (Staphylococcus aureus [1]) of 0.5 µg/mL (≈ 1.37 µM), an MIC (Bacillus) of 0.5 µg/mL (≈ 1.37 µM) and an MIC (Salmonella enterica) of 1 µg/mL (≈ 2.73 µM). The MIC (Bacillus spizizenii) was 0.5 µg/mL (≈ 1.37 µM), the MIC (Pseudomonas aeruginosa) was 1 µg/mL (≈ 2.73 µM) and the MIC (Escherichia coli) was 1 µg/mL (≈ 2.73 µM). The MIC (Staphylococcus aureus [3]) was 1 µg/mL (≈ 2.73 µM) and the MIC (Micrococcus luteus) was 0.5 µg/mL (≈ 1.37 µM).

`O=C(O)c1cn(C2CC2)c2c(Cl)c(NC3CCN(CC4CO4)C3)c(F)cc2c1=O` (centres undefined) gave an MIC (Staphylococcus aureus [1]) of 0.5 µg/mL (≈ 1.19 µM), an MIC (Aspergillus flavus) of 0.5 µg/mL (≈ 1.19 µM) and an MIC (Saccharomyces cerevisiae) of 0.25 µg/mL (≈ 0.593 µM). The MIC (Bacillus) was 0.25 µg/mL (≈ 0.593 µM), the MIC (Salmonella enterica) was 1 µg/mL (≈ 2.37 µM) and the MIC (Bacillus spizizenii) was 0.25 µg/mL (≈ 0.593 µM). It also gave an MIC (Candida albicans) of 2 µg/mL (≈ 4.74 µM), an MIC (Pseudomonas aeruginosa) of 0.5 µg/mL (≈ 1.19 µM) and an MIC (Escherichia coli) of 0.5 µg/mL (≈ 1.19 µM). The MIC (Pichia norvegensis) was 2 µg/mL (≈ 4.74 µM), the MIC (Staphylococcus aureus [3]) was 2 µg/mL (≈ 4.74 µM) and the MIC (Micrococcus luteus) was 0.25 µg/mL (≈ 0.593 µM). It also gave an MIC (Cyberlindnera jadinii) of 0.5 µg/mL (≈ 1.19 µM).

For `CCn1cc(C(=O)O)c(=O)c2cc(F)c(N3CCN(CC(O)Cn4c(C)nc(N5CCCC5)c4[N+](=O)[O-])CC3)cc21` (centres undefined), the MIC (Staphylococcus aureus [1]) was 64 µg/mL (≈ 112 µM), the MIC (Aspergillus flavus) was 16 µg/mL (≈ 28 µM) and the pKa [2] was 6.68. The MIC (Saccharomyces cerevisiae) was 8 µg/mL (≈ 14 µM), the MIC (Bacillus) was 64 µg/mL (≈ 112 µM) and the MIC (Salmonella enterica) was 64 µg/mL (≈ 112 µM). For the same compound, the MIC (Bacillus spizizenii) was 64 µg/mL (≈ 112 µM), the MIC (Candida albicans) was 32 µg/mL (≈ 56 µM) and the MIC (Pseudomonas aeruginosa) was 4 µg/mL (≈ 7 µM). It also gave an MIC (Escherichia coli) of 128 µg/mL (≈ 224 µM), an MIC (Pichia norvegensis) of 16 µg/mL (≈ 28 µM) and an MIC (Staphylococcus aureus [3]) of 32 µg/mL (≈ 56 µM). The MIC (Micrococcus luteus) was 64 µg/mL (≈ 112 µM) and the MIC (Cyberlindnera jadinii) was 32 µg/mL (≈ 56 µM).
